Measured values reported in ChEMBL document CHEMBL1134524, “Utilization of an intramolecular hydrogen bond to increase the CNS penetration of an NK(1) receptor antagonist” (J Med Chem, 2001).

system: Meriones unguiculatus; assay: Minimal effective dose to antagonize the foot tapping response when administered subcutaneously (0.1-10 mg/kg) in gerbil; conditions: sc, read-out: MED

| SMILES | minimal effective dose |
| --- | --- |
| C[C@H](NC(=O)[C@](Cc1c[nH]c2ccccc12)(CN(C)C)NC(=O)OCc1cc2ccccc2o1)c1ccccc1 | 1 mg/kg |

target: Substance-P receptor (Homo sapiens, UniProt P25103); assay: Inhibition of specific binding at tachykinin receptor 1; conditions: not given
Sequence (P25103 whole entry): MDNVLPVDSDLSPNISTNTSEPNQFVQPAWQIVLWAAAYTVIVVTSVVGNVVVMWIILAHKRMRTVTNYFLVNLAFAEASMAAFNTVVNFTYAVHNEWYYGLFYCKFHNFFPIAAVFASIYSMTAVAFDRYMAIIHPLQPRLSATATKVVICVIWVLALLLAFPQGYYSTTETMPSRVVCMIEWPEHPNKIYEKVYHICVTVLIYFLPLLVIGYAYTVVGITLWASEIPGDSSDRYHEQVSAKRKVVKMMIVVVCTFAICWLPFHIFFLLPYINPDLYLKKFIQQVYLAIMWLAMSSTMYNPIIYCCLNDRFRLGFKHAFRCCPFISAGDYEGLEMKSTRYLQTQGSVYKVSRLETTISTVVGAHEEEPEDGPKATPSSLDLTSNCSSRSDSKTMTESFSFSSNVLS

| IC50 | SMILES |
| --- | --- |
| 460 pM | C[C@H](NC(=O)[C@](Cc1c[nH]c2ccccc12)(CN(C)C)NC(=O)OCc1cc2ccccc2o1)c1ccccc1 |
| 850 pM | CCC[C@](Cc1c[nH]c2ccccc12)(NC(=O)OCc1cc2ccccc2o1)C(=O)N[C@@H](C)c1ccccc1 |

Further lines, the molecule ahead of its results:

| SMILES | IC50 |
| --- | --- |
| COC[C@](Cc1c[nH]c2ccccc12)(NC(=O)OCc1cc2ccccc2o1)C(=O)N[C@@H](C)c1ccccc1 | 700 pM |
| CC(C)C[C@](Cc1c[nH]c2ccccc12)(NC(=O)OCc1cc2ccccc2o1)C(=O)N[C@@H](C)c1ccccc1 | 3790 pM |
| C[C@H](NC(=O)[C@@H](Cc1c[nH]c2ccccc12)NC(=O)OCc1cc2ccccc2o1)c1ccccc1 | 730 pM |
| CC[C@](Cc1c[nH]c2ccccc12)(NC(=O)OCc1cc2ccccc2o1)C(=O)N[C@@H](C)c1ccccc1 | 960 pM |
